Experimental data published in patent US20250332212A1, “METHOD FOR TREATING OR PREVENTING ALOPECIA” (Suzhou Mingren Pharmaceutical Biotechnology Co., Ltd., priority 2024, published 2025).
Square brackets hold non-standard residues; d marks the D form. Ends that are not written are not given here. pS = N[C@@H](COP(=O)(O)O)C(=O)O

Assays:
integrin αv = assay: Integrin αv expression in skin tissue (qPCR, immunoblotting, immunofluorescence); format: in vivo, mouse
Source text: (§1) In this example, the mRNA expression levels of RGD-targeting molecules in the skin tissues of three groups of mice, namely, the AGA model control group, the model group and the JP1-treated group, were further examined.
(§2) To verify whether JP1 targeted integrin molecules are localized in hair follicles in the skin tissue, this example detected the expression levels, tissue localization, and distribution of integrin αv and integrin β1 in the skin tissue of the mouse model in Example 6 using immunofluorescence staining.
(§3) 4.1) Protein extraction: 70 mg of skin tissue was placed in a 1.5 mL centrifuge tube, and 500 μL of tissue lysate RIPA containing protease inhibitor and phosphatase inhibitor was added. The tissue was placed on an ice box, pulverized by a tissue grinder, and then ultrasonically crushed to obtain a tissue suspension, which was then placed in a rotary windmill at 4° C. to be lysed for 2 h. The centrifuge was set at 12,000×g, 4° C., centrifuged for 15 min, and the supernatant was collected as the total protein.
(§4) 5.1) Heating of protein samples: the total protein content of each tissue was 50 μg; calculate the volume of a corresponding protein sample, make up the volume with saline to 16 μL, then add 4 μL of 5×SDS sampling buffer, heat at 100° C. for 5 min, and then cool at room temperature and store at −20° C.
(§5) 7.1) Dilute the specific gene amplification primers to 10 µM in ddH2O, prepare the qPCR reaction system according to the instructions in the kit and add them sequentially into a 384-well plate.
(§6) 7.3) Relative mRNA expression levels of genes were calculated by the […] relative quantification method using GAPDH as an internal reference.
(§7) 9.5) Primary antibody incubation: the tissue was circled by the histochemical pen, about 50 μL of primary antibody was added dropwise to the tissue, and incubated in a wet box overnight at 4° C., washed 3 times with PBS.

β-catenin = β-catenin expression in skin tissue (qPCR, immunoblotting, immunofluorescence); format: in vivo, mouse
Method: as §3, §4
5.7) Primary antibody incubation: the cut protein bands were placed into the corresponding primary antibody and incubated at 4° C. on a shaker overnight, washed with TBST 3 times for 10 min/time.
as §5, §6, §7

[1] = mouse, in vivo
Method: In this Example, to elucidate the mechanism of JP1 penetrating the skin and acting on the hair follicle, a 14-day AGA modeling was performed according to the model design strategy of Example 1 above. Thereafter, a 1% FITC-JP1 solution was applied to the dorsal depilated area of the mice in a light-avoidance environment. Five time points were set at 0.5, 1, 2, 4 and 8 h for observation. The fresh skin tissue was made into frozen sections, and the penetration pathway of JP1 in the skin tissue and the amount of aggregation in the hair follicles were observed under an inverted fluorescence microscope.
15 C57BL/6J male mice were dorsally depilated after two weeks of continuous TP injection. A 1% FITC-JP1 solution was applied locally to the depilated area of the mice on the 1st day after depilation, no light, in five groups of 0.5 h, 1 h, 2 h, 4 h and 8 h (n=3).
The back skin was removed at the corresponding time points and fixed in 4% paraformaldehyde. After 48 h of fixation, the skin tissue was successively dehydrated in 20% and 30% sucrose solution for 2 days each. After gradient dehydration, sections (20 μm) were made using a frozen microtome. Zeiss inverted fluorescence microscope was used to photograph the fluorescent sections.

AR, FOXD3, and FOXI1 = assay: qPCR of other predicted SP1 transcription factors in skin tissue; format: in vivo, mouse; conditions: P>0.05
Method: Four transcription factors that can bind to the SP1 promoter region were obtained by taking the intersection of the predicted data: E2F1, AR, FOXD3, and FOXI1 (FIG. 13A).
as §5, §6

[2] = test system: TP-induced AGA model mice; assay: TP-induced AGA model, Animal model III (specific inhibition of SP1 by MTA); format: in vivo, C57BL/6J male mice
Source text: To verify that JP1 promotes AGA follicle regeneration through the activation of the Wnt/β-catenin signaling pathway via the MAPK/E2F1/SP1 signaling axis, the example constructed a mouse model of AGA with specific inhibition of SP1 (FIG. 15A). The specific experimental details are described according to “Animal model III” of “1. TP-induced AGA model” in “Experimental Methods”.
To further confirm that JP1 promotes the growth of hair follicles on the back of AGA model mice through the SP1-regulated Wnt/β-catenin signaling pathway at the histomorphometric level, H&E staining was performed on the skin tissues of the model mice of Example 15 at different time points (days 4, 8, and 12 post-intervention).
The mice used in this study were 5-week-old C57BL/6J male mice (18-20 g), which were purchased from Jiangsu Jicui Pharmachem Biotechnology Co. All the animals used in the experiments were housed in the SPF-level environment of the Medical Laboratory Animal Center of Nanjing Medical University, and the relevant animal experimental operations were approved by the Animal Ethics Committee of Nanjing Medical University. The control group was left untreated, and the other groups were injected with TP subcutaneously on their backs every day. Two weeks later, the hair on the backs of the mice was shaved with an electric razor, covering an area of 2 cm×4 cm, and then the residual hair was removed with a hair removal cream. The subcutaneous injections of TP on the shaved backs of the mice in the AGA model was continued until the end of the experimental period, and the administration of TP in each of the treatment groups was begun on the 1st day of the dehairing process.
In addition to the normal control group (denoted as control) n=20, all mice injected subcutaneously with TP were randomly divided into the following groups (n=20): the model group (denoted as model), the 1% JP1 (skin-coated), and the 1% JP1+MTA group. […] MTA was administered at a dose of 0.3 mg/kg/d, qd, intraperitoneally, 100 μL/dose.
Mice were weighed every two days during the experiment. Skin color was assessed against skin score charts. The mice were euthanized and treated at the end of the experiment, and skin tissues were taken from the dorsal decorticated area of the mice. Some of the tissues were fixed with 4% paraformaldehyde solution and then paraffin sections were made for H&E or immunofluorescence staining, etc., and some of the tissues were stored in the refrigerator at −80° C. for relevant molecular expression assays (qRT-PCR, Western Blot, IP, etc.).
8.1) Sampling and fixation: After the experiment, skin tissue was taken from the depilated area on the back of the mouse and placed in a 10 mL EP tube. 4% paraformaldehyde was added to the EP tube, and all tissues were immersed to denature and coagulate the proteins of the skin tissue. The original morphology and structure of the cells were maintained.
8.6) H&E staining: the sections pretreated in distilled water were put into aqueous hematoxylin solution for a few minutes for staining. The color was separated in acid water and ammonia for a few seconds each. After rinsing in running water for 1 h, the sections were placed in distilled water for a few moments. The sections were dehydrated in 70% and 90% alcohol for 10 min each, and stained in alcoholic eosin stain for 2-3 min.

integrin β1 = assay: Integrin β1 expression in skin tissue (qPCR, immunoblotting, immunofluorescence); format: in vivo, mouse
Source text: as §1, §2, §3, §4, §5, §6, §7

Lef1 = assay: qPCR of Lef1 mRNA in skin tissue; format: in vivo, mouse
Method: 6.1) Sample preparation: 15-20 mg of mouse skin tissue was placed in a 1.5 mL centrifuge tube, and 600 μL of pre-cooled lysate was quickly added, and homogenized with an electric homogenizer. The homogenate obtained was blown gently 10 times, left at room temperature for 3-5 min, then centrifuged at 14,000×g for 5 min, and the supernatant was transferred to a new centrifuge tube with a pipette gun of suitable volume.
as §5, §6

[3] = each JP1 intervention group, localized in the site of hair follicles
[4] = skin tissue, immunoblotting, JP1 P<0.01
[5] = skin tissue, qPCR, decreased in TP model group, P<0.01
[6] = 1% JP1 skin-coated, MTA 0.3 mg/kg/d intraperitoneally

Substance: FPGSDRF-RGD (FPG[pS]DRFRGD) [JP1, amino acid S is phosphorylated; JWA peptide]
- integrin αv expression, immunofluorescence staining (integrin αv; [3]): elevated
- integrin αv protein level (TP-down-regulated) (integrin αv; [4]): reversed
- integrin αv expression at the end of the model (integrin αv; skin tissue, qPCR, P<0.01): returned to control levels
- integrin αv mRNA expression after JP1 intervention (integrin αv; [5]): significantly elevated
- β-catenin immunohistofluorescence staining (β-catenin): trend consistent with the results of protein immunoblotting experiments
- β-catenin protein expression (β-catenin; protein immunoblotting, dose-effect relationship for JP1): increased
- β-catenin mRNA expression vs model group (β-catenin; qPCR): increased
- penetration into skin and follicle tissue [1]: able to penetrate into the skin and enter into the follicle tissue in a targeted manner
- mRNA expression of other molecules (predicted SP1 transcription factors) (AR, FOXD3, and FOXI1): did not change significantly
- skin color on the back, day 8 [2, 6]: turned gray
- skin color on the back, day 10 [2, 6]: changed significantly to black-gray
- hair follicle morphology at day 8 vs 1% JP1+MTA group ([2]; H&E longitudinal section, 1% JP1): hair follicles extended downward and the bulbous part of hairs expanded
- diameter of the hair bulb ([2]; H&E, day 12, 1% JP1 P<0.001): increased
- thickness of the dermis ([2]; H&E, day 12, 1% JP1 P<0.001): increased
- total number of hair follicles vs model group and 1% JP1+MTA group ([2]; skin transection, day 8 and day 12, P<0.001): significantly more
- integrin β1 expression, immunofluorescence staining (integrin β1; [3]): elevated
- integrin β1 protein level (TP-down-regulated) (integrin β1; [4]): reversed
- integrin β1 expression at the end of the model (integrin β1; skin tissue, qPCR, P<0.01): returned to control levels
- integrin β1 mRNA expression after JP1 intervention (integrin β1; [5]): significantly elevated
- Lef1 mRNA expression vs model group (Lef1): increased
